Assay results from PMC9025810, “Interaction of Antifungal Drugs with CYP3A- and OATP1B-Mediated Venetoclax Elimination” (Pharmaceutics, 2022).
Where two headings read alike, the source gives them in different places. *1 amine or outer side, *2 acyl side, *3 side chain or, on linkers, in order; H or OH if unused. Where a SMILES comes first, the peptide text is derived from it. Bridges are numbered along the chain shown (N, C = ends). [ ]: non-standard residue; d: D form. The star is where a group is joined. hTyr(3S-OH,4S-OH,3'-OSO3H) = N[C@H](C(=O)O)[C@H](O)[C@@H](O)c1ccc(O)c(OS(=O)(=O)O)c1; pTerphenylCO(4''-OnC5H11) = CCCCCOc1ccc(-c2ccc(-c3ccc(C(=O)*)cc3)cc2)cc1; Orn(4R-OH,5R-OH) = O=C([C@H](C[C@@H](O)[C@@H](O)N[*:3])N[*:1])[*:2]; hTyr(3S-OH,4S-OH) = N[C@H](C(=O)O)[C@H](O)[C@@H](O)c1ccc(O)cc1; Pro(3S-OH,4S-Me) = C[C@H]1CN[C@H](C(=O)O)[C@H]1O; X1 = CCCCCOc1ccc(-c2cc(-c3ccc(C(=O)*)cc3)no2)cc1; Gln(3R-OH) = NC(=O)C[C@@H](O)[C@H](N)C(=O)O; Hyp = O=C(O)[C@@H]1C[C@@H](O)CN1

How the values were obtained:
[1] = molecular target: T1, OATP1B1 (Homo sapiens, UniProt Q9Y6L6); experiment: Inhibition of OATP1B1-mediated [3H]EβG uptake in HEK293 cells; details: for IC50: 0.2 µM EβG, 15 min pre-incubation + 15 min co-incubation; for OATP1B1 inhibitory potency compared with parent drug itraconazole: EβG uptake
T1 sequence (Q9Y6L6 1-691): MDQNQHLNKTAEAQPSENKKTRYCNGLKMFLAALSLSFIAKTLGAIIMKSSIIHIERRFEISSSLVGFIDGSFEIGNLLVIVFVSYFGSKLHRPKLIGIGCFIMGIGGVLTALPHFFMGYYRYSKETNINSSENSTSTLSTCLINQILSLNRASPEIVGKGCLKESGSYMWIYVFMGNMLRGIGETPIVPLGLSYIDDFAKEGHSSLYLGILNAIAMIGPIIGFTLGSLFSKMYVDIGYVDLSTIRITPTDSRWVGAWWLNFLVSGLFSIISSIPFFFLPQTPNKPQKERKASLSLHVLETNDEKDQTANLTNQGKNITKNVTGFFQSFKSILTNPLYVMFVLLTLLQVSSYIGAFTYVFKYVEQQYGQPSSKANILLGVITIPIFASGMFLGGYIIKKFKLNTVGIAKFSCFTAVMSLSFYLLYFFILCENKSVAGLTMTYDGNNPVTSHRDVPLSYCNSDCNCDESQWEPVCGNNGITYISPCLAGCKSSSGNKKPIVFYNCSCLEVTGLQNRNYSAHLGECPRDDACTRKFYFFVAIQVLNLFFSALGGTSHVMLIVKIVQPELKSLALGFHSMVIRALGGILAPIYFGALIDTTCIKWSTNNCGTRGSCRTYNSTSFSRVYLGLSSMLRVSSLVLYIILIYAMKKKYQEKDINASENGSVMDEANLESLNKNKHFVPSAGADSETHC
Protocol: (§1) In brief, radioactive uptake assays were performed utilizing HEK293 cell lines stably expressing OATP1B1 or OATP1B2, or cells expressing the respective vector control (VC) [17, 18]. […] Cells were cultured in Dulbecco’s Modified Eagle Medium (DMEM; Invitrogen) supplemented with 10% FBS; the media for cells expressing OATP1B1 or VC was supplemented with hygromycin B (25 mg/mL; Invitrogen), and blasticidin (37.5 mg/mL; Biovision).
(§2) For inhibition experiments, cells were seeded in 12- or 24-well plates in phenol red-free media and were incubated at 37 °C for 24 h; cells overexpressing OATP1B1 or VC were incubated with doxycycline (1 µg/mL) for 24 h. Cells were washed with warm PBS and pre-incubated with the indicated concentrations of each potential inhibitor (or an equal volume of vehicle) in phenol red-free DMEM (without FBS and supplements) at 37 °C for 15 min. […] The experiment was terminated by washing three times with ice-cold PBS. Cells were lysed with 1 N NaOH overnight at 4 °C, and the solution was neutralized with 2 M HCl. […] The OATP1B-mediated uptake was calculated by dividing the disintegrations per minute (dpm) from each replicate by the amount of protein (mg) and subtracting the dpm/mg protein in the VC cell line. The OATP1B1-mediated uptake at each concentration of each antifungal drug was then compared with the OATP1B1-mediated uptake when only an equal volume of vehicle (water or DMSO) was added without the antifungal drug.

[2] = molecular target: T1, OATP1B1; experiment: In vitro to in vivo extrapolation (FDA basic models: Cmax,ss/IC50 and R value); details: FDA 2020 guidance Equation (2), >1.1 indicates potential to inhibit in vivo
Excerpt: In brief, we utilized the equation Cmax,ss/IC50. To use this equation, we identified the mean total peak concentration at the steady-state of each potential inhibitor (Cmax,ss) from the published literature on the clinical pharmacokinetics of each agent (Supplementary Table S2). We then divided Cmax,ss by the IC50 of the respective agents. (1) CMax,ss/IC50
As indicated by the FDA guidelines, values of >0.1 indicate the potential for a clinically relevant interaction.
To utilize this equation, we used the previously determined Cmax,ss (Supplementary Table S2). Where necessary, the molar weight was used to convert the dose or Cmax,ss to µM. We determined the unbound fraction in plasma (fup) for each drug from publicly available literature. […] As recommended by the FDA guidelines, the fraction absorbed (Fa) and intestinal availability (Fg) were set to 1, fup was set to 1% when reported to be less than 1%, and the absorption constant (ka) was set to 0.1 min^−1 (as a worst-case estimate).

[3] = molecular target: T2, OATP1B2 (Mus musculus, UniProt Q9JJL3); experiment: Inhibition of OATP1B2-mediated [3H]EβG uptake in HEK293 cells
T2 sequence (Q9JJL3 1-689): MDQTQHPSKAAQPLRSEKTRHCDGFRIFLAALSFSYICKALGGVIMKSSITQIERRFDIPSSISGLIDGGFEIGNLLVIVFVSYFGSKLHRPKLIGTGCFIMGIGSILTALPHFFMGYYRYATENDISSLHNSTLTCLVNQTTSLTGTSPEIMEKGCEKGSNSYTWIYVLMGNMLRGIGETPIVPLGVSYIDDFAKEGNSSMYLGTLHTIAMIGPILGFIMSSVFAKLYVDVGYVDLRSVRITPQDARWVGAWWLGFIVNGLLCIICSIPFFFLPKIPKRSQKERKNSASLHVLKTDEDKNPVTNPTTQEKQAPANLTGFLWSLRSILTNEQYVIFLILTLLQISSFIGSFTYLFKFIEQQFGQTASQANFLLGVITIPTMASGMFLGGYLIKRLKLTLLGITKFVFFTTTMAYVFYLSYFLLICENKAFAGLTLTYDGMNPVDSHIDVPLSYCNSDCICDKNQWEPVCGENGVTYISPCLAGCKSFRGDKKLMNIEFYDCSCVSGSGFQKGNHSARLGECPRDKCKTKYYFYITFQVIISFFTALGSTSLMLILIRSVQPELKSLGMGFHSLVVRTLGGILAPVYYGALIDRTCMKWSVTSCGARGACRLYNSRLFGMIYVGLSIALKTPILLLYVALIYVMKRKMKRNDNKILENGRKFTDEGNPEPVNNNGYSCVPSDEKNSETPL
Protocol: as §1, §2

[4] = test system: OATP1B1; design: method as in PMID 27273149; details: previous data, weak inhibition; cited from earlier work
[5] = molecular target: T1, OATP1B1; experiment: Competitive counterflow assay with 8-acetoxy-trisulfopyrene; format: cell-based; design: expressed in transfected cells; details: 5 µM ACE; venetoclax 200 µM, cyclosporin A 10 µM, paraformaldehyde 0.5%; 20 min
Protocol: Competitive counterflow assays were performed with 8-acetoxy-trisulfopyrene, an activatable fluorogenic probe for OATP1B1, as described previously. In brief, cells expressing a vector or OATP1B1 were seeded in 96-well opaque plates in phenol-red free DMEM media with 10% FBS and induced with doxycycline for 24 h. On the day of the experiment, the media was removed, and the cells were washed three times with warm PBS. The cells were then incubated for 20 min at 37 °C with 100 µL of 5 µM 8-acetoxypyrene-1,3,6-trisulfonate uptake buffer (ACE; 125 mM NaCl, 4.8 mM KCl, 1.2 mM CaCl2, 1.2 mM KH2PO4, […], 25 mM 2-N-morpholino), ethanesulfonic acid, and 5.6 mM glucose, with the pH adjusted to 5.5). […] The fluorescence was measured at excitation and emission wavelengths of 460 nm and 510 nm, respectively, after 20 min of incubation to control for the number of cells.
The plates were incubated for 20 min at 37 °C. In the final step, the supernatant was removed, and the cells were washed three times with 200 µL ice-cold PBS to stop the reaction. PBS was then removed and 200 µL of 0.1 N NaOH was added to each well to normalize the pH. The fluorescence was measured as described above after another 20 min incubation at room temperature. The levels of cell dye were reported as a percent of the measurement from cells containing ACE alone.

[6] = molecular target: T1, OATP1B1; experiment: Radioactive uptake and membrane/intracellular fractionation in cells overexpressing OATP1B1 or vector; format: cell-based; design: expressed in transfected cells; details: 0.2 µM EβG or 1 µM venetoclax, 15 min
Protocol: For experiments seeking to directly determine if venetoclax is an OATP1B1 substrate, cells overexpressing OATP1B1 or VC were seeded in six-well plates in phenol red-free DMEM containing 10% FBS and doxycycline (1 µg/mL) for 24 h. […] Cells were then immediately lysed with 1 mL of 1 N NaOH for 4 h on an orbital shaker at room temperature to measure total radioactivity. Alternatively, cells were trypsinized with 200 µL of TrypLE (Thermo Fisher Scientific, Waltham, MA, USA) for 3–5 min, rinsed with 800 µL of ice-cold washing buffer, and ProteoExtract Native Membrane Protein Extraction Kits (EMD Millipore, Burlington, MA, USA) were used to separate membrane and intracellular fractions. Dissociated cells were then transferred to 1.5-mL Eppendorf tubes. For measurement of total radioactivity, cells were neutralized with 500 µL of 2 M HCl after 4 h. For measurement of total radioactivity in the membrane or intracellular fraction, cells were isolated following the manufacturer’s protocol, as we have reported previously; this procedure is based on a differential extraction procedure under non-denaturing conditions.

[7] = cited from earlier work
[8] = OATP1B2 IC50, HEK293 cells, 0.2 µM EβG, 15 min pre-incubation + 15 min co-incubation

Molecule	IC50 ([1]; OATP1B1 IC50, HEK293 cells) [µM]	R value [2]	IC50 [3, 8] [µM]	other results
CO[C@H]1/C=C/O[C@@]2(C)Oc3c(C)c(O)c4c(O)c(c(/C=N/N5CCN(C)CC5)c(O)c4c3C2=O)NC(=O)/C(C)=C\C=C\[C@H](C)[C@H](O)[C@@H](C)[C@@H](O)[C@@H](C)[C@H](OC(C)=O)[C@@H]1C [Rifampin]	< 3	> 1.1	2.1	–
CC(=O)C(C)n1ncn(-c2ccc(N3CCN(c4ccc(OC[C@H]5CO[C@](Cn6cncn6)(c6ccc(Cl)cc6Cl)O5)cc4)CC3)cc2)c1=O (stereo partly shown) [Keto-ITZ, keto-itraconazole]	–	–	–	OATP1B1 inhibitory potency compared with parent drug itraconazole ([1]; HEK293 cells): more potent inhibitors of OATP1B1 than the parent drug; IC50 ([1]; read-out: OATP1B1 IC50, HEK293 cells): 8.3 µM
CCC(C)n1ncn(-c2ccc(N3CCN(c4ccc(OCC5COC(Cn6cncn6)(c6ccc(Cl)cc6Cl)O5)cc4)CC3)cc2)c1=O (stereo not shown) [Itraconazole]	37	–	> 50	–
OC(Cn1cncn1)(Cn1cncn1)c1ccc(F)cc1F [Fluconazole]	4100	–	> 5000	–
CC(C)c1nc(CN(C)C(=O)N[C@@H](CCN2CCOCC2)C(=O)N[C@H](CC[C@H](Cc2ccccc2)NC(=O)OCc2cncs2)Cc2ccccc2)cs1 [Cobicistat]	0.31	> 1.1	0.7	–
C[C@@H](c1nc(-c2ccc(C#N)cc2)cs1)[C@](O)(Cn1cncn1)c1cc(F)ccc1F [Isavuconazole]	2.5	> 1.1	2.5	IC50 [4]: > 10 µM
paraformaldehyde	–	–	–	Effect on fluorescence (cell dye level) in competitive counterflow [5]: did not decrease fluorescence
CCCCCOc1ccc(-c2cc(-c3ccc(C(=O)N[C@H]4C[C@@H](O)[C@@H](O)NC(=O)[C@@H]5[C@@H](O)[C@@H](C)CN5C(=O)[C@H]([C@H](O)CC(N)=O)NC(=O)[C@H]([C@H](O)[C@@H](O)c5ccc(O)c(OS(=O)(=O)O)c5)NC(=O)[C@@H]5C[C@@H](O)CN5C(=O)[C@H]([C@@H](C)O)NC4=O)cc3)no2)cc1 [Micafungin] (X1-[Orn(4R-OH,5R-OH)]T[Hyp][hTyr(3S-OH,4S-OH,3'-OSO3H)][Gln(3R-OH)][Pro(3S-OH,4S-Me)]; lactam 1-C)	2.1	> 1.1	4.9	–
CC[C@H](C)C[C@H](C)CCCCCCCCC(=O)N[C@H]1C[C@@H](O)[C@@H](NCCN)NC(=O)[C@@H]2[C@@H](O)CCN2C(=O)[C@H]([C@H](O)CCN)NC(=O)[C@H]([C@H](O)[C@@H](O)c2ccc(O)cc2)NC(=O)[C@@H]2C[C@@H](O)CN2C(=O)[C@H]([C@@H](C)O)NC1=O [Caspofungin]	9.2	–	> 100	–
CC[C@@H]([C@H](C)O)n1ncn(-c2ccc(N3CCN(c4ccc(OC[C@@H]5CO[C@@](Cn6cncn6)(c6ccc(F)cc6F)C5)cc4)CC3)cc2)c1=O [Posaconazole]	1.9	> 1.1	> 80	IC50 ([3]; IC50 (Figure S7, Relative OATP1B2 Function), HEK293 cells expressing OATP1B2, EβG uptake, value printed in figure panel): > 100 µM; IC50 at 15 min ([3]; mouse, HEK293 cells stably expressing OATP1B2, probe [3H]EβG, 0.2 µM, OATP1B2 IC50, HEK293 cells, 0.2 µM EβG, 15 min pre-incubation + 15 min co-incubation): > 20 µM
CC(O)C(C)n1ncn(-c2ccc(N3CCN(c4ccc(OCC5COC(Cn6cncn6)(c6ccc(Cl)cc6Cl)O5)cc4)CC3)cc2)c1=O (stereo not shown) [Hydroxy-ITZ, hydroxy-itraconazole]	3.5	–	> 2	OATP1B1 inhibitory potency compared with parent drug itraconazole ([1]; HEK293 cells): more potent inhibitors of OATP1B1 than the parent drug
C[C@]12CC[C@@H]3c4ccc(O)cc4CC[C@H]3[C@@H]1CC[C@@H]2O[C@@H]1O[C@H](C(=O)O)[C@@H](O)[C@H](O)[C@H]1O [EβG, Estradiol-17β-D-glucuronide]	–	–	–	Uptake in the intracellular fraction with overexpression of OATP1B1 versus vector [6]: significant increases
CC(=O)N1CCN(c2ccc(OCC3COC(Cn4ccnc4)(c4ccc(Cl)cc4Cl)O3)cc2)CC1 (stereo not shown) [Ketoconazole]	1.5	–	2.2	Fraction Unbound (fup) [7]: 3.2%
CCCCCOc1ccc(-c2ccc(-c3ccc(C(=O)N[C@H]4C[C@@H](O)[C@@H](O)NC(=O)[C@@H]5[C@@H](O)[C@@H](C)CN5C(=O)[C@H]([C@@H](C)O)NC(=O)[C@H]([C@H](O)[C@@H](O)c5ccc(O)cc5)NC(=O)[C@@H]5C[C@@H](O)CN5C(=O)[C@H]([C@@H](C)O)NC4=O)cc3)cc2)cc1 [Anidulafungin] ({pTerphenylCO(4''-OnC5H11)}-[Orn(4R-OH,5R-OH)]T[Hyp][hTyr(3S-OH,4S-OH)]T[Pro(3S-OH,4S-Me)]; lactam 1-C)	42	–	–	–
C[C@@H](c1ncncc1F)[C@](O)(Cn1cncn1)c1ccc(F)cc1F [Voriconazole]	80	–	> 200	–
